Data as given in patent US10105426B2, “Immunostimulatory combinations” (TRUSTEES OF DARTMOUTH COLLEGE, priority 2002, dated 2018).

Columns and labels:
Assay type in all cases: in vivo, C57BL6 mice
CD8^+ T cells [1] = test: CD8+ T cell expansion with CD40 agonist and different IRM compounds (Example 8); conditions: 500 μg ovalbumin + 50 μg FGK4.5 + IRM (500 μg IRM3, 200 μg IRM4, 800 μg IRM5, 800 μg IRM2) i.p.; spleen, day 6; n=3
Description: Mice were intraperitoneally injected on day 0 with 500 μg ovalbumin, 50 μg CD40 agonist (FGK4.5), and either 500 μg IRM3, 200 μg IRM4, 800 μg IRM5, 800 μg IRM2, or no IRM (control).

[2] = tested on: melanoma B16ova tumor cells; test: Tumor growth after melanoma B16ova challenge, immunization with tumor lysate (Example 7); conditions: B16ova day 0; immunization day 7 with 1×10^6 CE tumor lysate ± 200 μg IRM1 ± 100 μg FGK4.5; measured days 14 and 20
Description: Mice were challenged with tumor on day 0 as in example 6. 5 mice each were immunized on days 7 with 1×10^6 cell equivalents (CE) (A) tumor lysate, (B) 1×10^6 CE tumor lysate+200 μg IRM1, (C) 1×10^6 CE tumor lysate+100 μg FGK4.5 anti-CD40 antibody, or (D)1×10^6 CE tumor lysate+200 μg IRM1+100 μg FGK4.5 anti-CD40 antibody. Tumor sizes were measured on the mice by caliper on days 14 and 20.

CD8^+ memory T cells = test: Generation and re-activation of CD8+ memory T cells (Example 4); conditions: day 0: 100 μg ovalbumin peptide + 200 μg IRM1 + 100 μg 1C10 i.v.; challenge day 28 with peptide or peptide + 200 μg IRM1; analysis day 33
Description: Mice were immunized intravenously on day 0 with 100 μg ovalbumin peptide+200 μg IRM 1+100 μg of 1C10 anti-CD40 antibody. On day 28, the mice were either (A) left unchallenged, (B) challenged intravenously with 100 μg ovalbumin peptide, or (C) challenged intravenously with 100 μg ovalbumin peptide+200 μg IRM1. On day 33, the mice were sacrificed, the spleens removed and spleen cells homogenized. The homogenized cells were stained and analyzed as described in Example 1.

[3] = tested on: TRP2-ΔV-specific CD8^+ T cells; test: Expansion of TRP2-ΔV-specific CD8+ T cells after i.v. immunization (Example 3); conditions: 100 μg FGK4.5 + 200 μg IRM1 + 100 μg TRP2-ΔV peptide i.v.; spleen, day 5
Description: Mice were immunized intravenously with 100 μg FGK4.5 anti-CD40 antibody+200 μg IRM1 and either (A) no peptide, (B) 100 μg ovalbumin peptide, or (C) 100 μg TRP2-ΔV peptide. At five days after the immunizations, the spleens were removed from the mice and homogenized. The homogenized cell suspension was stained as in Example 1, except that the MHC tetramer reagent was prepared for detecting TRP2-ΔV-specific T cells. When subjected to flow cytometry, TRP2-ΔV-specific CD8^+ T cells are shown in the upper right quadrant of the dot plots shown in FIG. 3. The numbers in the upper right quadrant indicate the percentage of cells in that quadrant.

[4] = tested on: melanoma B16ova tumor cells; test: Tumor growth after melanoma B16ova challenge, immunization with ovalbumin peptide (Example 6); conditions: B16ova intradermal day 0; immunization day 7 with 100 μg ovalbumin peptide + 200 μg IRM + 100 μg 1C10; measured day 21
Description: Mice were challenged intradermally on day 0 with 1×10^5 melanoma B16ova tumor cells in PBS (Kedl et al. PNAS 98(19):10811-10816). On day 7, the mice were immunized with either (A) 100 μg ovalbumin peptide, (B) 100 μg ovalbumin peptide+200 μg IRM1, or (C) 100 μg ovalbumin peptide+200 μg IRM1+100 μg 1C10 anti-CD40 antibody. On day 21, the mice were sacrificed and the tumors were measured in two dimensions by caliper.
Mice also were challenged as described above, and immunized as described above except that IRM2 was substituted for IRM1.

CD8^+ T cells [5] = test: CD8+ T cell expansion with IRM1 and different TNF/R agonists (Example 9); conditions: 1 mg ovalbumin + 200 μg IRM1 + 200 μg TNF/R agonist; spleen, day 6
Description: Mice were immunized on day 0 with 1 mg ovalbumin, 200 μg IRM1, and either 200 μg CD40 ligand (FGK4.5), 200 μg 4-1BB ligand (anti-mouse 4-1BB antibody, clone 17B3, eBioscience, San Diego, Calif.), or no TNF/R agonist (control).

[6] = tested on: ovalbumin-specific CD8^+ T cells; test: Expansion of ovalbumin-specific CD8+ T cells after i.v. immunization with ovalbumin peptide (Example 1, MHC tetramer flow cytometry of spleen cells); conditions: 100 μg ovalbumin peptide + 100 μg 1C10 anti-CD40 antibody + 200 μg IRM1 i.v., day 5, combination vs either agonist alone
Description: Unless otherwise indicated, mice used in the following examples are C57BL6 mice, available from Charles River Laboratories, Inc., Wilmington, Mass.
MHC tetrameric reagent was prepared using a eukaryotic (Baculovirus) expression system as follows/described in Kedl et al., JEM 192(8):1105-1113 (2000).
2-5 Mice were immunized intravenously with (A) 100 μg ovalbumin peptide, (B) 100 μg ovalbumin peptide+100 μg anti-CD40 antibody (1C10), (C) 100 μg ovalbumin peptide+200 μg IRM1, or (D) 100 μg ovalbumin peptide+100 μg 1C10 anti-CD40 antibody+200 μg IRM1. At five days after the immunizations, the spleens were removed from the mice and homogenized. The homogenized cell suspension was stained with a major histocompatibility complex (MHC) tetrameric reagent for detecting ovalbumin-specific T cells (Kedl et al., JEM 192(8):1105-1113 (2000)), a CD8 stain (BD Biosciences Pharmingen, San Diego, Calif.), and a CD44 stain (BD Biosciences Pharmingen, San Diego, Calif.). When subjected to flow cytometry, ovalbumin-specific CD8^+ T cells are shown in the upper right quadrant of the dot plots shown in FIG. 1.

[7] = tested on: ovalbumin-specific CD8^+ T cells; test: Expansion kinetics of ovalbumin-specific CD8+ T cells after i.p. immunization with whole ovalbumin (Example 2); conditions: 5 mg ovalbumin + 50 μg FGK4.5 anti-CD40 antibody + 220 μg IRM1 i.p.; spleen, days 4-12
Description: Mice were intraperitoneally injected with 5 mg ovalbumin (Sigma Chemical Co., St. Louis, Mo.), 50 μg FGK4.5 anti-CD40 antibody, and 220 μg IRM1. Mice were sacrificed on each of days four, five, six, nine, and twelve. The spleens were removed from the sacrificed mice and homogenized. The homogenized cell suspensions were stained and analyzed as described in Example 1. When subjected to flow cytometry, ovalbumin-specific CD8^+ T cells (top) and ovalbumin-specific CD8^+/CD44+ T cells (bottom) were identified and are shown in the upper right quadrant of each dot plot. The numbers in the upper right quadrant indicate the percentage of cells in that quadrant.

SMILES: CCOCc1nc2c(N)nc3ccccc3c2n1CC(C)(C)N [IRM3, 1-(2-amino-2-methylpropyl)-2-(ethoxymethyl)-1H-imidazo[4,5-c]quinolin-4-amine]
- Expansion of CD8^+ T cells (CD8^+ T cells [1]): Synergistic expansion of CD8^+ T cells

SMILES: Cc1nc2c(N)nc3ccccc3c2n1CC(C)(C)O [IRM1, 4-amino-α,α,2-trimethyl-1H-imidazo[4,5-c]quinolin-1-ethanol]
- Tumor growth (tumor size by caliper) [2]: slower tumor growth than immunization with IRM alone or CD40 agonist alone
- Generation and re-activation of CD8^+ memory T cells (CD8^+ memory T cells): generates a pool of long-lived CD8^+ memory T cells that can be reactivated by treatment with IRM and the antigen
- Expansion of antigen-specific (TRP2-ΔV) CD8^+ T cells [3]: synergistic expansion of antigen-specific CD8^+ T cells
- Tumor growth (tumor size by caliper) [4]: slower tumor growth than immunization with IRM alone
- Expansion of CD8^+ T cells (CD8^+ T cells [5]): Synergistic expansion of CD8^+ T cells
- Expansion of the ovalbumin-specific CD8^+ T cell population [6]: greater than the expansion of the ovalbumin-specific CD8^+ T cell populations after stimulation with either the anti-CD40 antibody or IRM alone
- CD8^+ T cell expansion (ovalbumin-specific) [7]: synergistic effect on CD8^+ T cell expansion

SMILES: CCCc1nc2c(N)nc3ccccc3c2n1CCCCNS(C)(=O)=O [IRM5, N-[4-(4-amino-2-propyl-1H-imidazo[4,5-c]quinolin-1-yl)butyl]-methanesulfonamide]
- Expansion of CD8^+ T cells (CD8^+ T cells [1]): Synergistic expansion of CD8^+ T cells

SMILES: CCc1nc2c(N)nc3ccccc3c2n1CCCCNS(C)(=O)=O [IRM4, N-[4-(4-amino-2-ethyl-1H-imidazo[4,5-c]quinolin-1-yl)butyl]-methanesulfonamide]
- Expansion of CD8^+ T cells (CD8^+ T cells [1]): Synergistic expansion of CD8^+ T cells

SMILES: COCCc1nc2c(N)nc3ccccc3c2n1CCOCCN(C)C(=O)N1CCOCC1 [IRM2, N-(2-{2-[4-amino-2-(2-methoxyethyl)-1H-imidazo[4,5-c]quinolin-1-yl]ethoxy}ethyl)-N-methylmorpholine-4-carboxamide]
- Expansion of CD8^+ T cells (CD8^+ T cells [1]): Synergistic expansion of CD8^+ T cells
